According to patent publication US20190375778A1, “ADENOSINE DERIVATIVES FOR USE IN THE TREATMENT OF CANCER” (NuCana plc, priority 2016, published 2019):

Experiments:
[1] = test system: Murine leukemia L1210; assay: Cell proliferation (Coulter count) assay, L1210; assay type: cell-based; settings: Mus musculus, 48 h, read-out: absolute IC50, L1210
Excerpt: (§1) Lovo: cell line derived from a metastatic site in a patient with colon cancer MCF7: human oestrogen sensitive mammary epithelial cell line PC3: human prostate cancer cell line A549: cancerous lung tissue derived cells L1210: lymphoblast cell line derived from a mouse with lymphocytic leukaemia FM3A: mammary carcinoma murine cells CEM: human T-lymphoblasts, derived from the blood of a patient with acute lymphoblastic leukaemia HeLa: epithelial cells from a patient with cervical adenocarcinoma
(§2) Murine leukemia L1210, human T-lymphocyte CEM, and human cervix carcinoma HeLa cells were obtained from the American Type Culture Collection (ATCC) (Rockville, Md.). All cells were maintained in Dulbecco's modified Eagle's medium (DMEM) (Invitrogen, Carlsbad, Calif.) with 10% fetal bovine serum (FBS) (Biochrom AG, Berlin, Germany), 10 mM Hepes, and 1 mM sodiumpyruvate (Invitrogen). Cells were grown at 37° C. in a humidified incubator with a gas phase of 5% CO2. Monolayer cells (HeLa and […]) were seeded in 96-well microtiter plates (Nunc, Roskilde, Denmark) at 10 000 cells/well. After 24 h, an equal volume of fresh medium containing the test compounds was added. On day 5, cells were trypsinized and counted in a Coulter counter (Analis, Suarlee, Belgium). Suspension cells (L1210, CEM) were seeded in 96-well microtiter plates (Nunc) at 60 000 cells/well in the presence of a given amount of the test compounds. The cells were allowed to proliferate for 48 h (L1210) or 72 h (CEM) and were then counted in a Coulter counter. The 50% inhibitory concentration (IC50) was defined as the compound concentration required to reduce cell proliferation by 50%. The cytostatic activity of the compounds was determined after 3 days, as outlined above.

[2] = test system: human T-lymphocyte CEM; assay: Cell proliferation (Coulter count) assay, CEM; assay type: cell-based; settings: 72 h, read-out: absolute IC50, CEM
Excerpt: as §1, §2

[3] = test system: human cervix carcinoma HeLa cells; assay: Cell proliferation (Coulter count) assay, HeLa; assay type: cell-based; settings: 120 h, cell count on day 5, read-out: absolute IC50, HeLa
Excerpt: as §1, §2

[4] = test system: KG1a leukaemic stem cell compartment (Lin−/CD34+/CD38−/CD123+); assay: Leukaemic stem cell compartment in KG1a; assay type: cell-based; settings: for Change relative to control (%): % LSC compartment versus the series' control; for KG-1a (CD34+/CD38−/CD123+) % compartment: LSC as percentage of viable cells left, 72 hrs
Protocol: A further comparative analysis of the toxicity of compounds in the KG1a cell line over an extended dose range was carried out, and the relative effect assessed of the compounds on the leukaemic stem cell compartment within the KG1a cell line, across the entire dose range. Thus, experimental tests were performed on certain compounds of the present invention to assess their ability to target cancer stem cells in a leukaemic cell line. The acute myeloid leukaemia (AML) cell line, KG1a, was employed to assess the relative effect of compounds on the stem cell compartment. The KG1a cell line was selected because it manifests a minor stem cell-like compartment with a distinct immunophenotype (Lin^−/CD34^+/CD38^−/CD123^+).
Cells of the KG1a cell line were maintained in RPMI medium (Invitrogen, Paisley, UK) supplemented with 100 units/ml penicillin, 100 μg/ml streptomycin and 20% foetal calf serum. Cells were subsequently aliquoted (10^5 cells/100 μl) into 96-well plates and were incubated at 37° C. in a humidified 5% carbon dioxide atmosphere for 72 hrs in the presence of nucleoside analogues and their respective nucleotide analogues (known as ProTides) at concentrations that were experimentally determined for each series of compounds. In addition, control cultures were carried out to which no drug was added. Cells were subsequently harvested by centrifugation and were analyzed by flow cytometry using the Annexin V assay.
KG1a cells were cultured for 72 hrs in the presence of a wide range of concentrations of each compound assayed. Cells were then harvested and labelled with a cocktail of anti-lineage antibodies (PE-cy7), anti-CD34 (FITC), anti-CD38 (PE) and anti-CD123 (PERCP cy5). The sub-population expressing a leukaemic stem cell (LSC) phenotype were subsequently identified and were expressed as a percentage of all viable cells left in the culture. The percentages of stem cells remaining were then plotted on a dose-response graph and the effects of the compounds were compared with 8-chloroadenosine.
The data obtained in these experiments were evaluated using one way ANOVA. All data was confirmed as Gaussian or a Gaussian approximation using the omnibus K2 test. LD50 values were calculated from the non-linear regression and line of best-fit analysis of the sigmoidal dose-response curves. All statistical analyses were performed using Graphpad Prism 6.0 software (Graphpad Software Inc., San Diego, Calif.).

[5] = test system: CCRFCEM; assay: CellTiterGlo viability assay, CCRFCEM; assay type: cell-based; settings: Homo sapiens, CCRF-CEM, 72 h, read-out: IC50 CCRFCEM
Protocol: (§3) In vitro viability assay were performed to assess the effects of compounds on cell viability in selected cell lines over ˜72 hrs using the CellTiterGlo (CTG, Promega-G7573) assay. The tests were performed in duplicates with treatment of compounds at 9 points, 3.16 folds titration in 96 well plates over ˜72 hrs. The compound starting concentrations were 198 μM. Cell viability assay using CellTiterGlo in 96-well plate were performed. Compound treatment 72 hrs, standard growth conditions, duplicates. Compounds were dissolved to 40 mM with thawed […]. Compounds were serially diluted at 3.16 fold in thawed DMSO, and warmed to 37° C. before being dissolved in media (2 μl+200 μl). After compounds were dissolved in media, media containing compounds were warmed to 37° C. in incubator and then compounds in media were added to cell plates (50 μl+50 μl) in duplicates. The compounds' final concentrations were from […] to 19.9 nM. All compound solubilities were checked and recorded again, then the plates were transferred to CO2 tissue culture incubator immediately and incubated for 3 days. DMSO final concentration is 0.5%.

[6] = test system: HEL92.1.7; assay: CellTiterGlo viability assay, HEL92.1.7; assay type: cell-based; settings: Homo sapiens, HEL 92.1.7, 72 h, read-out: IC50 HEL92.1.7
Protocol: as §3

[7] = test system: KG-1; assay: CellTiterGlo viability assay, KG-1; assay type: cell-based; settings: Homo sapiens, KG-1, 72 h, read-out: IC50 KG-1
Protocol: as §3

[8] = test system: K562; assay: CellTiterGlo viability assay, K562; assay type: cell-based; settings: Homo sapiens, K562, 72 h, read-out: IC50 K562
Protocol: as §3

[9] = test system: NCI-H929; assay: CellTiterGlo viability assay, NCI-H929; assay type: cell-based; settings: Homo sapiens, NCI-H929, 72 h, read-out: IC50 NCI-H929
Protocol: as §3

[10] = test system: MV4-11; assay: CellTiterGlo viability assay, MV4-11; assay type: cell-based; settings: Homo sapiens, MV4-11, 72 h, read-out: IC50 MV4-11
Protocol: as §3

[11] = test system: RL; assay: CellTiterGlo viability assay, RL; assay type: cell-based; settings: Homo sapiens, RL, 72 h, read-out: IC50 RL
Protocol: as §3

[12] = test system: RPMI-8226; assay: CellTiterGlo viability assay, RPMI-8226; assay type: cell-based, Human; settings: Homo sapiens, RPMI-8226, 72 h, read-out: IC50 RPMI-8226
Protocol: as §3

[13] = test system: HL-60; assay: CellTiterGlo viability assay, HL-60; assay type: cell-based; settings: Homo sapiens, HL-60, 72 h, read-out: IC50 HL-60
Protocol: as §3

Row | Structure (SMILES) | IC50 [1] [µM] | IC50 [2] [µM] | IC50 [3] [µM] | further results
1 | C[C@H](NP(=O)(N[C@@H](C)C(=O)OCc1ccccc1)OC[C@H]1O[C@@H](n2c(Cl)nc3c(N)ncnc32)C(O)C1O)C(=O)OCc1ccccc1 (stereo partly drawn) [AB, 8-Chloroadenosine 5′-O-bis(benzyloxy-L-alanin-N-yl) phosphate] | 5 to 15 | 0.1 to 5 | 0.1 to 5 | 
2 | Nc1nc(Cl)nc2c1ncn2[C@H]1C[C@H](O)[C@@H](CO)O1 [Cladribine] |  |  |  | Change relative to control (%) [4]: +2.0%; KG-1a (CD34+/CD38−/CD123+) % compartment [4]: 6.0%
3 | Nc1nc(Cl)nc2c1ncn2[C@@H]1O[C@H](CO)[C@@H](O)[C@@H]1F [Clofarabine] |  |  |  | Change relative to control (%) [4]: −0.2%; KG-1a (CD34+/CD38−/CD123+) % compartment [4]: 3.3%
4 | Nc1ncnc2c1nc(Cl)n2[C@@H]1O[C@H](COP(=O)(NCC(=O)OCc2ccccc2)Oc2cccc3ccccc23)C(O)C1O (stereo partly shown) [Compound L, 5′-([(benzylo-yl-glycin-N-yl)-naphth-1-yl]-phosphatyl) 8-chloroadenosine] | 5 to 15 | 0.1 to 5 | 0.1 to 5 | IC50 [5]: 5 to 15 µM; IC50 [6]: 0.1 to 5 µM; IC50 [7]: 5 to 15 µM; IC50 [8]: 5 to 15 µM; IC50 [9]: 15 to 100 µM; IC50 [10]: 0.1 to 5 µM; IC50 [11]: 5 to 15 µM; IC50 [12]: 0.1 to 5 µM; IC50 [13]: 5 to 15 µM
5 | CCOC(=O)[C@H](C)NP(=O)(OC[C@H]1O[C@@H](n2c(Cl)nc3c(N)ncnc32)C(O)C1O)Oc1cccc2ccccc12 (stereo partly drawn) [F, 5′-([(Ethyloxy-L-alanin-N-yl)-naphth-1-yl]-phosphatyl) 8-chloroadenosine] | 15 to 100 | 5 to 15 | 0.1 to 5 | 
6 | C[C@H](NP(=O)(OC[C@H]1O[C@@H](n2c(Cl)nc3c(N)ncnc32)C(O)C1O)Oc1cccc2ccccc12)C(=O)OC1CCCCC1 (stereo partly drawn) [G, 5′-([(Cyclohexyloxy-L-alanin-N-yl)-naphth-1-yl]-phosphatyl) 8-chloroadenosine] | 15 to 100 | 5 to 15 | 0.1 to 5 | 
7 | CCCCCOC(=O)[C@H](CC(C)C)NP(=O)(OC[C@H]1O[C@@H](n2c(Cl)nc3c(N)ncnc32)C(O)C1O)Oc1cccc2ccccc12 (stereo partly drawn) [I, 5′-([(Pent-1-yloxy-L-leucin-N-yl)-naphth-1-yl]-phosphatyl) 8-chloroadenosine] | 5 to 15 | 5 to 15 | 0.1 to 5 | 
8 | CC(C)C[C@H](NP(=O)(OC[C@H]1O[C@@H](n2c(Cl)nc3c(N)ncnc32)C(O)C1O)Oc1cccc2ccccc12)C(=O)OC1CCCCC1 (stereo partly drawn) [J, 5′-([(Cyclohexyloxy-L-leucin-N-yl)-naphth-1-yl]-phosphatyl) 8-chloroadenosine] | 5 to 15 | 5 to 15 | 5 to 15 | 
9 | CCOC(=O)[C@H](CC(C)C)NP(=O)(OC[C@H]1O[C@@H](n2c(Cl)nc3c(N)ncnc32)C(O)C1O)Oc1cccc2ccccc12 (stereo partly drawn) [K, 5′-([(ethyloxy-L-leucin-N-yl)-naphth-1-yl]-phosphatyl) 8-chloroadenosine] | 15 to 100 | 5 to 15 | 0.1 to 5 | 
10 | Nc1ncnc2c1nc(Cl)n2[C@@H]1O[C@H](COP(=O)(NCC(=O)OC2CCCCC2)Oc2cccc3ccccc23)C(O)C1O (stereo partly shown) [M, 5′-([(Cyclohexyloxy-glycin-N-yl)-naphth-1-yl]-phosphatyl) 8-chloroadenosine] | 15 to 100 | 15 to 100 | 15 to 100 | 
11 | CCOC(=O)CNP(=O)(OC[C@H]1O[C@@H](n2c(Cl)nc3c(N)ncnc32)C(O)C1O)Oc1cccc2ccccc12 (stereo partly shown) [N, 5′-([(ethyloxy-glycin-N-yl)-naphth-1-yl]-phosphatyl) 8-chloroadenosine] | 15 to 100 | 15 to 100 | 0.1 to 5 | 
12 | CCCCCOC(=O)CNP(=O)(OC[C@H]1O[C@@H](n2c(Cl)nc3c(N)ncnc32)C(O)C1O)Oc1cccc2ccccc12 (stereo partly shown) [O, 5′-([(Pent-1-yloxy-glycin-N-yl)-naphth-1-yl]-phosphatyl) 8-chloroadenosine] | 0.1 to 5 | 0.1 to 5 | 0.1 to 5 | IC50 [5]: 15 to 100 µM; IC50 [6]: 15 to 100 µM; IC50 [7]: 15 to 100 µM; IC50 [8]: 5 to 15 µM; IC50 [9]: 15 to 100 µM; IC50 [10]: 0.1 to 5 µM; IC50 [11]: 15 to 100 µM; IC50 [12]: 5 to 15 µM; IC50 [13]: 15 to 100 µM
13 | Nc1ncnc2c1nc(Cl)n2[C@@H]1O[C@H](COP(=O)(N[C@@H](Cc2ccccc2)C(=O)OCc2ccccc2)Oc2cccc3ccccc23)C(O)C1O (stereo partly drawn) [P, 5′-([(Benzyloxy-L-phenylalanin-N-yl)-naphth-1-yl]-phosphatyl) 8-chloroadenosine] | 5 to 15 | 0.1 to 5 | 0.1 to 5 | IC50 [5]: 5 to 15 µM; IC50 [6]: 0.1 to 5 µM; IC50 [7]: 5 to 15 µM; IC50 [8]: 0.1 to 5 µM; IC50 [9]: 0.1 to 5 µM; IC50 [10]: 0.1 to 5 µM; IC50 [11]: 5 to 15 µM; IC50 [12]: 0.1 to 5 µM; IC50 [13]: 0.1 to 5 µM
14 | Nc1ncnc2c1nc(Cl)n2[C@@H]1O[C@H](COP(=O)(N[C@@H](Cc2ccccc2)C(=O)OC2CCCCC2)Oc2cccc3ccccc23)C(O)C1O (stereo partly drawn) [R, 5′-([(Cyclohexyloxy-L-phenylalanin-N-yl)-naphth-1-yl]-phosphatyl) 8-chloroadenosine] | 5 to 15 | 5 to 15 | 0.1 to 5 | 
15 | CCOC(=O)[C@H](Cc1ccccc1)NP(=O)(OC[C@H]1O[C@@H](n2c(Cl)nc3c(N)ncnc32)C(O)C1O)Oc1cccc2ccccc12 (stereo partly drawn) [S, 5′-([(Ethyloxy-L-phenylalanin-N-yl)-naphth-1-yl]-phosphatyl) 8-chloroadenosine] | 15 to 100 | 5 to 15 | 0.1 to 5 | 
